Measured values published in BigSolDB 2.1.

c1ccc2[nH]c(-c3cscn3)nc2c1
solubility (mole fraction)
Conditions	283.15 K	288.15 K	293.15 K	298.15 K	303.15 K	308.15 K	313.15 K	318.15 K	323.15 K
in 2-butanone	0.0012	0.00137	0.00151	0.00161	0.00186	0.00209	0.00223	0.00241	0.0025
in acetone	0.000605	0.000711	0.000796	0.000936	0.00105	0.00119	0.00139	0.00153	0.00173
in acetonitrile	0.000112	0.00012	0.000145	0.000149	0.000209	0.000253	0.000309	0.000339	0.000403
in ethanol	0.00128	0.0014	0.00153	0.00163	0.00192	0.00213	0.00234	0.00274	0.00295
in ethyl acetate	0.000435	0.000523	0.000638	0.000704	0.000825	0.000956	0.00109	0.00116	0.00127
in isobutanol	0.000905	0.00104	0.00123	0.00144	0.00176	0.00202	0.0023	0.00258	0.00294
in isopropanol	0.000699	0.000762	0.00089	0.000954	0.00118	0.00136	0.0016	0.00182	0.00198
in methanol	0.00133	0.00142	0.00158	0.00167	0.00211	0.00219	0.00244	0.00279	0.00301
in methyl acetate	0.000378	0.000515	0.000608	0.000636	0.000758	0.000822	0.000899	0.000953	0.00117
in n-butanol	0.0016	0.0018	0.00193	0.0022	0.00266	0.0029	0.00337	0.00371	0.00416
in n-butyl acetate	0.000445	0.000544	0.000646	0.000724	0.000881	0.00098	0.00114	0.00122	0.00136
in n-propanol	0.00137	0.00148	0.00173	0.00181	0.00217	0.00246	0.00274	0.00303	0.00347
